This is an account of results in US8470859B2, “Iminopyridine derivative and use thereof” (Takeda Pharmaceutical Company Limited, priority 2006, dated 2013).

In test [1] the target is T1, human adrenaline α1D receptor (Homo sapiens, UniProt P25100).
T1 construct: expressed in transfected cells; membrane fraction used
T1 sequence (P25100 1-572): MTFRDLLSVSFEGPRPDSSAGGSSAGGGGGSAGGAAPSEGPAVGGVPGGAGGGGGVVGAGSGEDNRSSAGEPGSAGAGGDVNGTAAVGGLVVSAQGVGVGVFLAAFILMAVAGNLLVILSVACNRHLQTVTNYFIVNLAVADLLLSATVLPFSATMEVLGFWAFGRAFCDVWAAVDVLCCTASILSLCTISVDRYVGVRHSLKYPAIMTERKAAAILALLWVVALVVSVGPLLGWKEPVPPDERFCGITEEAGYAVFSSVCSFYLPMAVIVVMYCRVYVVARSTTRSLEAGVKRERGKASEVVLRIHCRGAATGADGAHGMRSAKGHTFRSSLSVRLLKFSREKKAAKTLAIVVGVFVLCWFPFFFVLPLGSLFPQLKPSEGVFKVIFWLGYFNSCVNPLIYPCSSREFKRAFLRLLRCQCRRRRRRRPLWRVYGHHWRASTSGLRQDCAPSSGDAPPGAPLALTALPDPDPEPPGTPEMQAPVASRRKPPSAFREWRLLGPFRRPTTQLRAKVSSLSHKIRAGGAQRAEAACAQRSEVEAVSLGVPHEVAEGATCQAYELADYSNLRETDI
Nature of the test: Measurement of α1D receptor binding inhibitory activity ([3H]prazosin binding to membrane fraction of CHO-K1 cells expressing the receptor). The conditions noted are these: read-out: binding inhibitory rate (%) (α1D receptor binding inhibitory rate at 1 μM). The method, then:
Measurement of α1D Receptor Binding Inhibitory Activity
Genetic manipulation methods described below are based on the methods described in Maniatis et al., Molecular Cloning, Cold Spring Harbor Laboratory, 1989, the protocol appended to a reagent and the like. • (i) Preparation of Human Adrenaline α1D Receptor Expression Plasmid
Adrenaline α1D receptor gene was cloned from human […] CDNA by the PCR method. PCR reaction was performed by Gene Amp PCR System 9700 (Applied Biosystems) with […] each of the primer set 5′-[…]-3′ [SEQ ID NO: 1] and 5′-[…]-3′ [SEQ ID NO: 2] prepared in reference to the base sequence of the adrenaline α1D receptor gene reported by DEBRA A. et al. (J. Pharamacol. Exp. Ter., 272, 134-142 (1995)), 200 ng of human brain hippocampus cDNA library (Takara Shuzo Co., Ltd.) as a template and TaKaRa LA-Taq DNA Polymerase (Takara Shuzo Co., Ltd.) (reaction conditions: 45 cycles of 94° C. for 15 sec, 68° C. for 3.5 min).
The PCR fragment obtained above was digested with restriction enzymes NheI (Takara Shuzo Co., Ltd.) and Kpn I (Takara Shuzo Co., Ltd.) and applied to agarose gel electrophoresis to recover DNA fragments. The DNA fragments was ligated with animal cell expression plasmid, pcDNA3.1/Zeo (Invitrogen) digested with NheI and Kpn I, by DNA Ligation Kit Ver.2 (Takara Shuzo Co., Ltd.), and transformed the competent cells of Escherichia coli JM109 to obtain plasmid, pcDNA3. 1/Zeo-Adreα1D. • (ii) Introduction of Human Adrenaline α1D Receptor Expression Plasmid into CHO-K1 Cells and Preparation of Membrane Fraction
CHO-K1 cells passage cultured in HmF12 medium (Invitrogen) containing 10% fetal bovine serum (TRACE SCIENCETIFIC) in a 150 cm^2 culture flask (Corning Coaster) were detached with 0.5 g/L trypsin-0.2 g/L EDTA (Invitrogen), and the cells were washed with D-PBS(−) (Invitrogen) and centrifuged (1000 rpm, 5 min). Then, using Gene Pulser II (BioRad), DNA was introduced into the cells under the following conditions. 1×10^7 cells suspended in D-PBS(−) (700 μl) and 10 μg of pcDNA3.1/Zeo-Adreα1D were added in a 0.4 cm gap cuvette (BioRad), and electroporation was performed under voltage 0.25 kV, capacitance 960 μF. The cells were cultured in HamF12 medium containing 10% fetal bovine serum and 250 μg/mL Zeocin (Invitrogen) and the Zeocin resistance clones were selected.
Plurality of Zeocin resistance clones were selected and cultured in a cell culture flask (150 cm^2) until semiconfluent, and the cellular membrane fraction was prepared as follows.
The semiconfluent cells were detached with 0.02% EDTA containing D-PBS(−) and recovered by centrifugation. The cells were suspended in membrane preparation buffer (10 mM NaHCO3 pH 7.4, protease inhibitor cocktail (Roche)) and disrupted by 3 times of treatment in a polytron homogenizer (model PT-3100, KINEMATICA AG) at 20000 rpm for 20 seconds. After disruption, the cells were centrifuged at 2000 rpm for 10 min and the supernatant containing membrane fractions was obtained. The supernatant was centrifuged using an ultracentrifuge (model L8-70M, rotor 70 Ti, Beckman Instruments) at 30000 rpm for 1 hr to obtain a precipitate containing membrane fractions. The obtained membrane fraction of each clone was subjected to the binding experiment shown below.
The membrane fraction (20 μg/well) [^3H] prazosin (2.5 nM, PerkinElmer Lifescience), as a ligand, were diluted with a binding assay buffer (50 mM Tris-HCl, 10 mM MgCl2, 0.5% BSA, protease inhibitor cocktail pH 7.5) and added to a 96 well microplate, and reacted at room temperature for 1 hr. For the measurement of non-specific binding, phentolamine (Sigma) was further added to 10 μM. Then, the reaction mixture was filtered and transferred to unifilter GF/C (PerkinElmer Lifescience) by using a cell harvester (PerkinElmer Lifescience). The filter was washed 3 times with ice-cooled 50 mM Tris buffer (pH 7.5). […]

The test system of test [2] is isolated bladder muscle of BOO model rat. Nature of the test: Effect of various drugs on α1 receptor stimulation-induced contraction of isolated bladder muscle of bladder outlet obstruction (BOO) model rat. The conditions noted are these: phenylephrine 3 μmol/L; for IC50: Rattus norvegicus, 0.5 h, concentration inhibiting the average tension by 50%, read-out: Inhibitory effect on phenylephrine-induced contraction IC50 (average method); for IC50 / Inhibitory effect on phenylephrine-induced contraction IC30 (stddev method): cumulative treatment, 3 concentrations, 30 min intervals; for Inhibitory effect on phenylephrine-induced contraction IC30 (stddev method): concentration inhibiting the sustained, rhythmic contractile responses by 30%. The method, then:
Effect of Various Drugs on α1 Receptor Stimulation-Induced Contraction of Isolated Bladder Muscle of Bladder Outlet Obstruction (BOO) Model Rat
• (i) Seven-week-old male Wistar rats (CLEA Japan, Inc., Tokyo) were used. BOO rat was prepared according to publications (Hashimoto T, Nagabukuro H and Doi T: Effects of the selective acetylcholinesterase inhibitor TAK-802 on the voiding behavior and bladder mass increase in rats with partial bladder outlet obstruction. J Urol. 174: 1137-41., 2005.). After pentobarbital (50 mg/kg i.p., Dainippon Sumitomo Pharma Co., Ltd., Osaka) anesthesia, a lower middle abdominal incision was made to expose the bladder. The prostate was detached, the urethra was ligated along with a glass rod having an outer diameter of 1.2 mm, and the glass rod was removed to prepare partial obstruction of the urethra. After the surgery, the abdomen was sutured, and penicillin (2000 IU/rat, penicillin G potassium, MEIJI SEIKA KAISHA, LTD., Tokyo) was subcutaneously administered. An animal after 2 to 4 weeks from obstruction surgery was used. • (ii) Contractile Responses of Isolated Bladder Muscle (1) Preparation of Bladder Muscle Specimen
BOO model rat was sacrificed by decaptation, and the bladder was isolated. Muscle strips (length 7-10 mm, width about 3 mm) in the longitudinal direction were prepared from the bladder except bladder trigone (4-6 specimen from each bladder).
The prepared bladder muscle specimens were hung in a Magnus bath aerated with 95% O2-5% CO2 gas and filled with modified Krebs solution. The contraction tension was measured by an isometric strain transducer (TSD125C, Biopac systems, Santa Barbara, Calif., USA) and recorded in the hard disc of PC (ThinkCentre, IBM, USA) via an amplifier (DA100C, Biopac systems) and a multichannel data analysis apparatus (MP100A-CE, Biopac systems). For uptaking the data, a dedicated software (Acqknowledge 3.8.1., Biopac systems) was used and the sampling interval was set to 0.2 second (5 Hz). The specimens were hung with a load of about 1 g and, after an equilibration time of 1 hr or longer, the following experiment was performed.
The specimens were treated with phenylephrine (3 μmol/L) to induce contraction. After the contractile response was stabilized (>20 min), the specimens were cumulatively treated 3 times with a drug at a 10-fold common ratio and 30 min intervals, and the variation in the tension was observed.
The variation in the tension due to α1 receptor stimulation was evaluated by the two methods shown below [average method and standard deviation (Stddev) method].
The average tension for one minute was measured immediately before phenylephrine treatment and after the contraction was stabilized after the treatment (immediately before completion of about 20 min observation time), and the difference was taken as 100%. The average tension for one minute was measured immediately before completion of observation time (30 min) after treatment with a drug at each concentration, and the inhibition rate of the drug at each concentration was calculated. In the vehicle treatment group, the variation rate of phenylephrine-induced contraction was calculated every time the specimens were treated 3 times with lo the solvent, and the inhibition rate of the drug at each concentration was adjusted based on the variation rate of the corresponding vehicle treatment group. The concentration (IC50) necessary for inhibiting the average tension by 50% by preclinical package (SAS Institute Japan, Ver. 5.0) was calculated based on the inhibition rate at each concentration.
The standard deviation was measured immediately before phenylephrine treatment and for 5 min after the contraction was stabilized after treatment (immediately before completion of the about 20 min observation time) and the difference was taken as 100%. […]

The mark [3] stands for this setting: compound at 1 μM, [3H] prazosin 2.5 nM, membrane fraction 20 μg/well.

Counter-ions that a name gives are not always drawn. Like-named read-outs stand apart in the source and are kept apart here.

For `CS(=O)(=O)c1cc(Cl)ccc1Cn1cc(Cl)cc(C(N)=O)c1=N` [Example 149, 5-chloro-1-[4-chloro-2-(methylsulfonyl)benzyl]-2-imino-1,2-dihydropyridine-3-carboxamide hydrobromide], the inhibition at 1 µM in test [1] (setting [3]) came to 96%.
For the molecule `N#Cc1cc(F)cc(Cn2cc(Cl)cc(C(N)=O)c2=N)c1` [Example 181, 5-chloro-1-(3-cyano-5-fluorobenzyl)-2-imino-1,2-dihydropyridine-3-carboxamide hydrobromide], in test [1] (setting [3]), the inhibition at 1 µM was 95.4%.
On to `N=c1c(C(N)=O)cc(Cl)cn1Cc1cccc(Cl)c1` [Example 19, 5-chloro-1-(3-chlorobenzyl)-2-imino-1,2-dihydropyridine-3-carboxamide], for which the inhibition at 1 µM in test [1] (setting [3]) was 99.1%.
With `N=c1c(C(N)=O)cc(Cl)cn1CC1CCCCC1` [Example 26, 5-chloro-1-(cyclohexylmethyl)-2-imino-1,2-dihydropyridine-3-carboxamide], the inhibition at 1 µM in test [1] (setting [3]) is 75.7%.
On to `COc1ccccc1N1CCN(CC(O)COc2cccc3ccccc23)CC1` (stereo not drawn) [Naftopidil], for which, in test [2], the IC50 was determined as 1500 nM; the “effect on the rhythmic contractile response induced by phenylephrine (average method and Stddev method), in words” value (“effect … in words” for short) is on record as “inhibited”; the “Inhibitory effect on phenylephrine-induced contraction IC30 (stddev method)” value (from here on “Inhibitory effect”) came out at 3800 nM.
`N=c1c(C(N)=O)cc(Cl)cn1C1CCc2ccccc21` (stereo not drawn) [Example 32, 5-chloro-1-(2,3-dihydro-1H-inden-1-yl)-2-imino-1,2-dihydropyridine-3-carboxamide]: the inhibition at 1 µM in test [1] (setting [3]) was 93.9%.
Regarding `N=c1c(C(N)=O)cc(Cl)cn1Cc1ccc(Cl)c(Cl)c1` [Example 20, 5-chloro-1-(3,4-dichlorobenzyl)-2-imino-1,2-dihydropyridine-3-carboxamide], the inhibition at 1 µM in test [1] (setting [3]) turned out to be 100%.
On to `C[C@H](c1ccccc1)n1cc(Cl)cc(C(N)=O)c1=N` [Example 168, 5-chloro-2-imino-1-[(1R)-1-phenylethyl]-1,2-dihydropyridine-3-carboxamide hydrochloride], for which, in test [1] (setting [3]), the inhibition at 1 µM is 94.7%.
Turning to `N=c1c(C(N)=O)cc(Cl)cn1CCc1ccccc1` [Example 23, 5-chloro-2-imino-1-(2-phenylethyl)-1,2-dihydropyridine-3-carboxamide], the inhibition at 1 µM in test [1] (setting [3]) stood at 81.8%.
With `N#Cc1ccc(F)c(Cn2cc(Cl)cc(C(N)=O)c2=N)c1` [Example 156, 5-chloro-1-(5-cyano-2-fluorobenzyl)-2-imino-1,2-dihydropyridine-3-carboxamide hydrobromide], in test [1] (setting [3]), the inhibition at 1 µM is 91.8%.
Regarding `N#Cc1cc(Cl)cc(Cn2cc(Cl)cc(C(N)=O)c2=N)c1` [Example 182, 5-chloro-1-(3-chloro-5-cyanobenzyl)-2-imino-1,2-dihydropyridine-3-carboxamide hydrobromide], the inhibition at 1 µM in test [1] (setting [3]) came out at 99.2%.
For `N=c1c(C(N)=O)cc(Cl)cn1[C@@H]1CCc2ccccc21` [Example 169, 5-chloro-1-[(1R)-2,3-dihydro-1H-inden-1-yl]-2-imino-1,2-dihydropyridine-3-carboxamide hydrochloride], the inhibition at 1 µM in test [1] (setting [3]) came out at 100%.
For `N#Cc1cc(C(N)=O)c(=N)n(Cc2cccc(Cl)c2)c1` [Example 151, 1-(3-chlorobenzyl)-5-cyano-2-imino-1,2-dihydropyridine-3-carboxamide hydrobromide], the inhibition at 1 µM in test [1] was determined as 69.5%.
With `CCOc1ccccc1OCCN[C@H](C)Cc1ccc(OC)c(S(N)(=O)=O)c1` [Tamsulosin, tamsulosin], in test [2], the IC50 amounted to 34 nM; the “effect … in words” value is reported as “inhibited”; the “Inhibitory effect” value is 9.4 nM.
On to `COc1ccccc1N1CCN(CCN2C(=O)CC3(CCCC3)CC2=O)CC1` [BMY 7378], for which, in test [2], the IC50 was determined as 270 nM; the “effect … in words” value is reported as “inhibited”; the “Inhibitory effect” value turned out to be 89 nM.
